Values quoted from earlier work in patent publication US9675585B1, “Extended release pharmaceutical formulations” (Ezra Pharma, priority 2016, dated 2017).

CCCCC(=O)N(Cc1ccc(-c2ccccc2-c2nnn[nH]2)cc1)[C@H](C(=O)O)C(C)C [valsartan]
time after which plasma concentration reaches very low level (following Cmax): 10 to 12 h
Tmax (oral administration): 2 to 4 h
